This assay concerns the target HCV NS5B polymerase (NS5BCΔ21) (Hepatitis C virus genotype 1b, UniProt P26663). Put plainly: NS5B inhibition assay. The conditions noted are these: for fold decrease in activity relative to thiophene parent compound 5a: NS5B IC50 compared with compound 5a; for fold enhancement of inhibitory activity relative to 5-methyl analog 6a: NS5B IC50 compared with compound 6a; for fold more active than 15a: NS5B IC50 compared with compound 15a. Format: biochemical.

`O=C(O)/C(O)=C/C(=O)c1cc2cc(Br)ccc2o1` [Compound 3a, 4-(5-Bromobenzofuran-2-yl)-2-hydroxy-4-oxobut-2-enoic acid]: the “fold improvement in inhibitory activity over compound 2a” value (NS5B IC50 compared with compound 2a) is ~ 3.5 fold.

As for `O=C(O)/C(O)=C/C(=O)c1cccs1` [Compound 5a, 2-Hydroxy-4-(thiophen-2-yl)-4-oxobut-2-enoic acid], the “fold increase in inhibitory activity over compound 4a” value (NS5B IC50 compared with compound 4a) is listed as ~ 2.2 fold.

Take `Cc1ccc(C(=O)/C=C(\O)C(=O)O)s1` [Compound 6a, 2-Hydroxy-4-(5-methylthiophen-2-yl)-4-oxobut-2-enoic acid]: the “fold decrease in activity relative to thiophene parent compound 5a” value is reported as “approximately 3 fold”.

In the case of `O=C(O)/C(O)=C/C(=O)c1ccc(Cl)s1` [Compound 7a, 2-Hydroxy-4-(5-chlorothiophene-2-yl)-4-oxobut-2-enoic acid], the “fold enhancement of inhibitory activity relative to 5-methyl analog 6a” value is ~ 2 fold.

For `O=C(O)/C(O)=C/C(=O)c1ccc(Br)s1` [Compound 8a, 4-(5-Bromothiophen-2-yl)-2-hydroxy-4-oxobut-2-enoic acid], the “fold enhancement of inhibitory activity relative to 5-methyl analog 6a” value is on record as ~ 2 fold.

Turning to `Cc1csc(C(=O)/C=C(\O)C(=O)O)c1` [Compound 10a, 2-Hydroxy-4-(4-methylthiophen-2-yl)-4-oxobut-2-enoic acid], the “fold enhancement of inhibitory activity relative to 5-methyl analog 6a” value is ~ 2 fold.

Take `Cc1ccsc1C(=O)/C=C(\O)C(=O)O` [Compound 11a, 2-Hydroxy-4-(3-methylthiophen-2-yl)-4-oxobut-2-enoic acid]: the “fold enhancement of inhibitory activity relative to 5-methyl analog 6a” value is ~ 7 fold.

Take `O=C(O)/C(O)=C/C(=O)c1nccs1` [Compound 12a, 2-Hydroxy-4-(4-thiazole-2-yl)-4-oxobut-2-enoic acid]: the “fold decrease in activity relative to thiophene parent compound 5a” value was ~ 1.8 fold.

With `O=C(O)/C(O)=C/C(=O)c1ccccc1[N+](=O)[O-]` [Compound 16a, 2-Hydroxy-4-(2-nitrophenyl)-4-oxobut-2-enoic acid], the “fold more active than 15a” value was ~ 2 fold.

As to `O=C(O)/C(O)=C/C(=O)c1ccccc1F` [Compound 17a, 4-(2-Fluorophenyl)-2-hydroxy-4-oxobut-2-enoic acid], the “fold more active than 15a” value is listed as ~ 2 fold.

These data come from article PMC3208381 (European journal of medicinal chemistry, 2011).
